US8163702B2, “Treatment of melanoma” (SciClone Pharmaceuticals, Inc., priority 2006, dated 2012)
“And” between values parts separate entries of the source, which are not always exact repeats. Identical values can stand only once.

Tested on: murine B16 melanoma
Test: Antitumor effect in murine B16 melanoma model, tumor size and tumor weight (Example 2)
Format: in vivo, C57BL/6 mice
Conditions: for Tumor volumes / Tumor measurements L / Tumor measurements W: Day 12; for IR (tumor volume inhibition rate) / Tumor Volume (Mean ± SD) / Tumor volumes (cm^3) on Day 15 / Tumor measurements (cm) on Day 15, L / Tumor measurements (cm) on Day 15, W: Day 15; for IR (inhibition rate of tumor weight) / Tumor Weight (Mean ± SD) / Tumor weights (g) on Day 17: Day 17; for Tumor volumes (cm^3) on Day 15: Length × Width × Width/2; for Tumor volumes (cm^3) on Day 15 / Tumor measurements (cm) on Day 15, L / Tumor measurements (cm) on Day 15, W / Tumor weights (g) on Day 17: individual animals F1-F5, M1-M5
Method: As per aseptic tissue culture procedures, one vial of B16 melanoma cells (supplied by Cell Culture Center of CAMS) was thawed and centrifuged at 1000 rpm, 20-25° C. for 5 minutes. The cell pellets were suspended in 0.1-0.5 mL normal saline (NS) and subcutaneously injected into the right axilla of each mouse (approximately 1×10^6 cells/mouse). When the tumor diameter was 1 cm approximately (measured by vernier caliper), the animals were euthanized with CO2 asphyxiation and the tumor was excised. Tumor cells were suspended in normal saline as previously described and the cell adaptation cycle was repeated once.
On Day 0, 1×10^6 B16 cells in a volume of 0.1 mL normal saline were subcutaneously injected into the right axillary area of the mouse. The day of tumor inoculation was defined as Day 0.
Dosing was initiated on Day 1.
Observations were recorded daily for mortality and moribundity. […] The tumors were excised, separated, and weighed.
Tumor volume was calculated using the following formula: Tumor Volume=Length×Width×Width/2 Tumor volume inhibition rate (IR) was calculated according to the formula: IR(TV)=(TVvehicle−TVdrug treated)/TVvehicle×100% TV is the tumor volume on the day of measurement.
The antitumor effect of the test article was also evaluated by tumor weight. The tumor weight of each mouse was recorded after euthanasia, and the inhibition rate of tumor weight was calculated according to the formula: IR(TW)=(Tumor weightvehicle−Tumor weightdrug treated)/Tumor weightvehicle×100%

[1] = SCV-07 0.01 mg/kg (Group 3), 0.01 mg/kg, female animals
[2] = SCV-07 0.01 mg/kg (Group 3), 0.01 mg/kg, male animals
[3] = SCV-07 0.01 mg/kg (Group 3), 0.01 mg/kg
[4] = SCV-07 0.1 mg/kg (Group 4), 0.1 mg/kg, female animals
[5] = SCV-07 0.1 mg/kg (Group 4), 0.1 mg/kg, male animals
[6] = SCV-07 0.1 mg/kg (Group 4), 0.1 mg/kg
[7] = SCV-07 1.0 mg/kg (Group 5), 1 mg/kg, female animals
[8] = SCV-07 1.0 mg/kg (Group 5), 1 mg/kg, male animals
[9] = SCV-07 1.0 mg/kg (Group 5), 1 mg/kg
[10] = SCV-07 5.0 mg/kg (Group 6), 5 mg/kg, female animals
[11] = SCV-07 5.0 mg/kg (Group 6), 5 mg/kg, male animals
[12] = SCV-07 5.0 mg/kg (Group 6), 5 mg/kg

N[C@H](CCC(=O)N[C@@H](Cc1c[nH]c2ccccc12)C(=O)O)C(=O)O [SCV-07, γ-D-glutamyl-L-tryptophan]
Tumor volumes (mouse M3, SCV-07 0.1 mg/kg sc): 0.67 cm^3 | Tumor measurements L (mouse M3, SCV-07 1.0 mg/kg sc): 0.7 cm | Tumor measurements W (mouse M3, SCV-07 1.0 mg/kg sc): 0.7 cm | Tumor volumes (mouse M3, SCV-07 1.0 mg/kg sc): 0.17 cm^3 | Tumor measurements L (mouse M3, SCV-07 5.0 mg/kg sc): 0.9 cm | Tumor measurements W (mouse M3, SCV-07 5.0 mg/kg sc): 0.9 cm | Tumor volumes (mouse M3, SCV-07 5.0 mg/kg sc): 0.36 cm^3 | Tumor measurements L (mouse M4, SCV-07 0.01 mg/kg sc): 1.0 cm | Tumor measurements W (mouse M4, SCV-07 0.01 mg/kg sc): 1.0 cm | Tumor volumes (mouse M4, SCV-07 0.01 mg/kg sc): 0.50 cm^3 | Tumor measurements L (mouse M4, SCV-07 0.1 mg/kg sc): 1.0 cm | Tumor measurements W (mouse M4, SCV-07 0.1 mg/kg sc): 0.9 cm | Tumor volumes (mouse M4, SCV-07 0.1 mg/kg sc): 0.41 cm^3 | Tumor measurements L (mouse M4, SCV-07 1.0 mg/kg sc): 1.0 cm | Tumor measurements W (mouse M4, SCV-07 1.0 mg/kg sc): 0.7 cm | Tumor volumes (mouse M4, SCV-07 1.0 mg/kg sc): 0.25 cm^3 | Tumor measurements L (mouse M4, SCV-07 5.0 mg/kg sc): 1.1 cm | Tumor measurements W (mouse M4, SCV-07 5.0 mg/kg sc): 1.1 cm | Tumor volumes (mouse M4, SCV-07 5.0 mg/kg sc): 0.67 cm^3 | Tumor measurements L (mouse M5, SCV-07 0.01 mg/kg sc): 1.1 cm | Tumor measurements W (mouse M5, SCV-07 0.01 mg/kg sc): 1.0 cm | Tumor volumes (mouse M5, SCV-07 0.01 mg/kg sc): 0.55 cm^3 | Tumor measurements L (mouse M5, SCV-07 0.1 mg/kg sc): 0.9 cm | Tumor measurements W (mouse M5, SCV-07 0.1 mg/kg sc): 0.9 cm | Tumor volumes (mouse M5, SCV-07 0.1 mg/kg sc): 0.36 cm^3 | Tumor measurements L (mouse M5, SCV-07 1.0 mg/kg sc): 0.8 cm | Tumor measurements W (mouse M5, SCV-07 1.0 mg/kg sc): 0.7 cm | Tumor volumes (mouse M5, SCV-07 1.0 mg/kg sc): 0.20 cm^3 | IR (tumor volume inhibition rate) (SCV-07 0.01 mg/kg/day sc): 15.3% | Tumor Volume (Mean ± SD) (SCV-07 0.01 mg/kg/day sc): 1.642 ± 0.549 cm^3 | IR (tumor volume inhibition rate) (SCV-07 0.1 mg/kg/day sc): 7.9% | Tumor Volume (Mean ± SD) (SCV-07 0.1 mg/kg/day sc): 1.786 ± 0.524 cm^3 | IR (tumor volume inhibition rate) (SCV-07 1.0 mg/kg/day sc): 16.5% | Tumor Volume (Mean ± SD) (SCV-07 1.0 mg/kg/day sc): 1.617 ± 0.274 cm^3 | IR (tumor volume inhibition rate) (SCV-07 5.0 mg/kg/day sc): 30.2% | Tumor Volume (Mean ± SD) (SCV-07 5.0 mg/kg/day sc): 1.353 ± 0.591 cm^3 | IR (inhibition rate of tumor weight) (SCV-07 0.01 mg/kg/day sc): 27.5% | Tumor Weight (Mean ± SD) (SCV-07 0.01 mg/kg/day sc): 2.77 ± 0.88 g | IR (inhibition rate of tumor weight) (SCV-07 0.1 mg/kg/day sc): 5.8% | Tumor Weight (Mean ± SD) (SCV-07 0.1 mg/kg/day sc): 3.59 ± 0.62 g | IR (inhibition rate of tumor weight) (SCV-07 1.0 mg/kg/day sc): 23.5% | Tumor Weight (Mean ± SD) (SCV-07 1.0 mg/kg/day sc): 2.92 ± 0.55 g | IR (inhibition rate of tumor weight) (SCV-07 5.0 mg/kg/day sc): 30.8% | Tumor Weight (Mean ± SD) (SCV-07 5.0 mg/kg/day sc): 2.64 ± 1.14 g | Tumor volumes (cm^3) on Day 15 [1]: 1.37 cm^3 and 1.69 cm^3 (3×) and 1.47 cm^3 | Tumor volumes (cm^3) on Day 15 [2]: 1.57 cm^3 and 1.69 cm^3 and 3.18 cm^3 and 1.47 cm^3 and 2.05 cm^3 | Tumor measurements (cm) on Day 15, L [3]: 1.5 cm and 1.8 cm (3×) and 1.4 cm (5×) and 1.3 cm | Tumor measurements (cm) on Day 15, W [3]: 1.5 cm (3×) and 1.4 cm (4×) and 1.3 cm (2×) and 1.8 cm | Tumor weights (g) on Day 17 [1]: 1.55 g and 2.04 g and 2.24 g and 3.71 g and 3.21 g | Tumor weights (g) on Day 17 [2]: 2.77 g and 2.80 g and 4.57 g and 2.29 g and 2.50 g | Tumor volumes (cm^3) on Day 15 [4]: 1.18 cm^3 (2×) and 1.69 cm^3 (2×) and 1.80 cm^3 | Tumor volumes (cm^3) on Day 15 [5]: 1.69 cm^3 (2×) and 1.77 cm^3 and 1.44 cm^3 and 2.05 cm^3 | Tumor measurements (cm) on Day 15, L [6]: 1.5 cm (6×) and 2.2 cm and 1.6 cm (2×) and 1.4 cm | Tumor measurements (cm) on Day 15, W [6]: 1.4 cm (4×) and 1.7 cm and 1.6 cm and 1.5 cm (4×) | Tumor weights (g) on Day 17 [4]: 2.46 g and 4.08 g and 4.03 g and 3.93 g and 3.52 g | Tumor weights (g) on Day 17 [5]: 3.10 g and 3.73 g and 4.47 g and 2.86 g and 3.74 g | Tumor volumes (cm^3) on Day 15 [7]: 1.10 cm^3 and 1.37 cm^3 and 1.80 cm^3 and 1.35 cm^3 and 1.57 cm^3 | Tumor volumes (cm^3) on Day 15 [8]: 1.47 cm^3 (2×) and 2.30 cm^3 and 1.10 cm^3 | Tumor measurements (cm) on Day 15, L [9]: 1.5 cm (3×) and 1.7 cm and 1.6 cm (2×) and 2 cm and 1.4 cm (2×) and 2.1 cm | Tumor measurements (cm) on Day 15, W [9]: 1.5 cm (4×) and 1.3 cm (5×) and 1.6 cm | Tumor weights (g) on Day 17 [7]: 2.69 g and 2.67 g and 4.06 g and 2.66 g and 3.25 g | Tumor weights (g) on Day 17 [8]: 3.58 g and 2.89 g and 2.25 g and 2.55 g and 2.58 g | Tumor volumes (cm^3) on Day 15 [10]: 1.91 cm^3 and 2.56 cm^3 and 1.69 cm^3 and 2.03 cm^3 and 1.57 cm^3 | Tumor volumes (cm^3) on Day 15 [11]: 1.37 cm^3 and 2.05 cm^3 (2×) and 2.03 cm^3 and 2.14 cm^3 | Tumor measurements (cm) on Day 15, L [12]: 1.6 cm (3×) and 1.5 cm (2×) and 1.8 cm and 1.3 cm (2×) and 1.4 cm | Tumor measurements (cm) on Day 15, W [12]: 1.4 cm (4×) and 1.6 cm and 1.3 cm (3×) and 1.5 cm | Tumor weights (g) on Day 17 [10]: 1.94 g and 3.15 g and 2.97 g and 2.80 g and 2.85 g | Tumor weights (g) on Day 17 [11]: 4.30 g and 0.15 g and 2.45 g and 3.78 g and 2.02 g | B16 melanoma tumor growth (SCV-07 0.01, 1.0 and 5.0 mg/kg/day sc for 14 days): significantly reduced
